In PMC7692337, “Masked Phenolic-Selenium Conjugates: Potent and Selective Antiproliferative Agents Overcoming P-gp Resistance” (Pharmaceuticals, 2020):
Read-outs that look alike come from different tables or passages of the source.

Tests used:
SW1573 = assay: P-glycoprotein assay, wild type line; assay type: cell-based; settings: Homo sapiens, 48 h exposure
Procedure: (§1) This assay allows prediction of whether a certain chemotherapeutic agent could develop chemoresistance when behaving as a P-gp substrate, one of the most common efllux-pumps used for the extrusion of cell xenobiotics. For that purpose, a cell line-based assay was used, in particular the lung cancer cell line in its wild type (SW1573), and its variant overexpressing P-gp (Sw1573/Pgp). Moreover, compounds were tested in the presence and in the absence of verapamil, which is known to inhibit P-gp. Chemotherapeutic agents paclitaxel (PTX) and vinblastine (VB) are used herein as reference compounds. In this assay, the resistance factor (Rf) for a certain compound is defined as the ratio of GI50 in the cell line overexpressing P-gp and the wild one (Table 4), high values of Rf denoting that the compound behaves as a P-gp substrate, and thus, chemoresistance through this mechanism will probably take place.

[1] = P-glycoprotein assay, line overexpressing P-gp; assay type: cell-based, human; settings: human, 48 h exposure
Procedure: as §1

SW1573/Pgp = assay: P-glycoprotein assay, line overexpressing P-gp; assay type: cell-based, human; settings: ratio between GI50 values in SW1573/PGP and SW1573 cells; for Rf w Verapamil: with verapamil; for Rf w/o Verapamil: without verapamil
Procedure: as §1

[2] = Free radical scavenging (DPPH method); settings: 30 min incubation, absorbance at 515 nm, read-out: EC50 antiradical activity (DPPH)
Procedure: In vitro antioxidant properties of key unprotected phenolic derivatives were analyzed using two different methodologies: free radical scavenging capacity, using the DPPH method (2,2-diphenyl-1-picrylhydrazyl), a HAT (hydrogen atom transfer) procedure, widely-used for both natural and synthetic derivatives, and also the capacity for scavenging H2O2, one of the most common ROS in degenerative diseases, including cancer.
DPPH is a commercially-available stable free radical commonly used for in vitro testing of radical scavenging properties of antioxidants.
Reported methodology was used with minor modifications. To a 60 µM methanolic DPPH solution (1.17 mL), the antioxidant solution (5–7 different solutions, 30 µL) or solvent (control, 30 µL) were added. After 30 min. of incubation in the dark, absorbance was measured at 515 nm, and EC50 values were calculated.

[3] = test system: A549 (non-small cell lung); assay: Antiproliferative activity, NCI protocol; assay type: cell-based, human
Procedure: (§2) Organochalcogen derivatives prepared herein were evaluated in vitro as potential antiproliferative agents, using a panel of six human tumour cell lines: A549 (non-small cell lung), HBL-100 (breast), HeLa (cervix), SW1573 (non-small cell lung), as drug sensitive lines, T-47D (breast) and WiDr (colon) as drug resistant lines. In addition to precursors 2, 6, 7, 13, 14, 17, 19, ebselen and cisplatin (CDDP) were used as reference drugs. […] In both cases, the NCI protocol, with minor modifications, was followed; selected data, including the selectivity index (S.I.) can be found in Table 3 and full data in Supporting Information (Table S1).
(§3) The in vitro antiproliferative activity was assayed using minor modifications of the protocol of the National Cancer Institute (NCI) of the United States against the six human solid tumor cell and the non-tumor cell lines tested.

HBL-100 (breast) = assay: Antiproliferative activity, NCI protocol; assay type: cell-based, human
Procedure: as §2, §3

HeLa (cervix) = assay: Antiproliferative activity, NCI protocol; assay type: cell-based, human
Procedure: as §2, §3

[4] = test system: SW1573 (non-small cell lung); assay: Antiproliferative activity, NCI protocol; assay type: cell-based, human
Procedure: as §2, §3

T-47D (breast) = assay: Antiproliferative activity, NCI protocol; assay type: cell-based, human; settings: read-out: GI50 T-47D (Breast)
Procedure: as §2, §3

WiDr (colon) = assay: Antiproliferative activity, NCI protocol; assay type: cell-based, human; settings: read-out: GI50 WiDr (Colon)
Procedure: as §2, §3

[5] = test system: six human tumour cell lines (A549, HBL-100, HeLa, SW1573, T-47D, WiDr); assay: Antiproliferative activity, panel of six human tumour cell lines; assay type: cell-based; settings: summary over the tested tumour cell lines, highest tested concentration 100 µM
Procedure: as §2, §3

[6] = with verapamil, reference drugs, read-out: GI50 SW153 w Verapamil
[7] = without verapamil, reference drugs, read-out: GI50 SW1573 w/o Verapamil
[8] = with verapamil (concentration not stated), with verapamil, reference drugs, read-out: GI50 SW1573/PGP w Verapamil
[9] = Homo sapiens, A549; read-out: GI50 A549 (Lung)
[10] = Homo sapiens, HBL-100; read-out: GI50 HBL-100 (Breast)
[11] = Homo sapiens, HeLa; read-out: GI50 HeLa (Cervix)
[12] = Homo sapiens, SW1573, Table S1, read-out: GI50 SW1573 (Lung)
[13] = Homo sapiens, T47D, drug resistant line
[14] = Homo sapiens, WiDr, drug resistant line
[15] = Homo sapiens, A549, read-out: GI50 A549 (Lung)
[16] = Homo sapiens, HBL-100, read-out: GI50 HBL-100 (Breast)
[17] = Homo sapiens, HeLa, read-out: GI50 HeLa (Cervix)
[18] = Homo sapiens, SW1573, read-out: GI50 SW1573 (Lung)

Compound: CC[C@]1(O)C[C@@H]2CN(CCc3c([nH]c4ccccc34)[C@@](C(=O)OC)(c3cc4c(cc3OC)N(C)[C@H]3[C@@](O)(C(=O)OC)[C@H](OC(C)=O)[C@]5(CC)C=CCN6CC[C@]43[C@@H]65)C2)C1 [VB, vinblastine, reference compound]
- GI50 (SW1573; [6]): 0.0008 ± 0.0002 µM
- GI50 (SW1573; [7]): 0.0009 ± 0.0003 µM
- GI50 at 48 h [1, 8]: 0.001 ± 0.0005 µM
- Rf w Verapamil (SW1573/Pgp): 1.3
- Rf w/o Verapamil (SW1573/Pgp): 2388

Compound: OCCc1ccc(O)c(O)c1 [HT, hydroxytyrosol, reference compound]
- EC50 [2]: 13.4 ± 0.6 µM

Compound: 3-phenylselenopropanoic acid [Compound 17]
- GI50 ([3]; read-out: GI50 A549 (Lung)): > 100 µM
- GI50 (HBL-100 (breast); read-out: GI50 HBL-100 (Breast)): > 100 µM
- GI50 (HeLa (cervix); read-out: GI50 HeLa (Cervix)): > 100 µM
- GI50 ([4]; Table S1, read-out: GI50 SW1573 (Lung)): > 100 µM
- GI50 (T-47D (breast); drug resistant line): > 100 µM
- GI50 (WiDr (colon); drug resistant line): > 100 µM

Compound: c1ccc(C[Se]CCc2ccc3c(c2)OCO3)cc1 [Compound 38, 1-Benzylseleno-2-(3’, 4’-methylenedioxyphenyl)ethane]
- GI50 [3, 9]: 19 ± 2 µM
- GI50 (HBL-100 (breast); [10]): 14 ± 3 µM
- GI50 (HeLa (cervix); [11]): 5.2 ± 1 µM
- GI50 [4, 12]: 27 ± 5 µM
- GI50 (T-47D (breast); [13]): 4.7 ± 1.2 µM
- GI50 (WiDr (colon); [14]): 14 ± 2 µM
- GI50 (SW1573; with verapamil, read-out: GI50 SW153 w Verapamil): 15 ± 3 µM
- GI50 (SW1573; without verapamil, read-out: GI50 SW1573 w/o Verapamil): 27 ± 2 µM
- GI50 at 48 h ([1]; with verapamil (concentration not stated), with verapamil, read-out: GI50 SW1573/PGP w Verapamil): 25 ± 2 µM
- GI50 at 48 h ([1]; without verapamil, read-out: GI50 SW1573/PGP w/o Verapamil): 29 ± 0.2 µM
- Rf w Verapamil (SW1573/Pgp): 1.6
- Rf w/o Verapamil (SW1573/Pgp): 1.1

Compound: O=C(O)CCCSSCCCC(=O)O [Compound 2, 4,4′-Dithiobisbuthyric acid]
- GI50 [3, 9]: > 100 µM
- GI50 (HBL-100 (breast); [10]): > 100 µM
- GI50 (HeLa (cervix); [11]): > 100 µM
- GI50 [4, 12]: > 100 µM
- GI50 (T-47D (breast); [13]): > 100 µM
- GI50 (WiDr (colon); [14]): > 100 µM

Compound: O=C(O)CSSCC(=O)O [Compound 6, Dithiodiacetic acid]
- GI50 [3, 9]: > 100 µM
- GI50 (HBL-100 (breast); [10]): > 100 µM
- GI50 (HeLa (cervix); [11]): > 100 µM
- GI50 [4, 12]: > 100 µM
- GI50 (T-47D (breast); [13]): > 100 µM
- GI50 (WiDr (colon); [14]): > 100 µM

Compound: O=C(CCSSCCC(=O)NCCc1ccc(O)c(O)c1)NCCc1ccc(O)c(O)c1 [Compound 9, 3,3′-Dithiobis{N-[2′’-(3′’’,4′’’-dihydroxyphenyl)ethyl]propanamide}]
- EC50 [2]: 4.2 ± 0.1 µM
- GI50 [3, 9]: 32 ± 1 µM
- GI50 (HBL-100 (breast); [10]): 31 ± 7 µM
- GI50 (HeLa (cervix); [11]): 28 ± 2 µM
- GI50 [4, 12]: 42 ± 6 µM
- GI50 (T-47D (breast); [13]): 45 ± 19 µM
- GI50 (WiDr (colon); [14]): > 100 µM
- GI50 ([5]; Homo sapiens, read-out: GI50 over the tumour cell lines (range, bound or words)): < 45 µM

Compound: O=c1c2ccccc2[se]n1CCc1ccc(O)c(O)c1 [Compound 26, N-[2′-(3′’,4′’-Dihydroxyphenyl)ethyl]-1,2-benzisoselenazole-3(2H)-one]
- EC50 [2]: 7.8 ± 0.2 µM
- GI50 [3, 15]: 21 ± 7 µM
- GI50 (HBL-100 (breast); [16]): 21 ± 4 µM
- GI50 (HeLa (cervix); [17]): 21 ± 6 µM
- GI50 [4, 18]: 21 ± 12 µM
- GI50 (T-47D (breast); Homo sapiens, T47D): 28 ± 6 µM
- GI50 (WiDr (colon); Homo sapiens, WiDr): 30 ± 3 µM
- GI50 over the tumour cell lines (range, bound or words) [5]: moderate antiproliferative properties

Compound: N#C[Se]CCC(=O)O [Compound 19, 3-Selenocyanatopropanoic acid]
- GI50 [3, 15]: 18 ± 6 µM
- GI50 (HBL-100 (breast); [16]): 93 ± 9 µM
- GI50 (HeLa (cervix); [17]): 32 ± 10 µM
- GI50 [4, 18]: > 100 µM
- GI50 (T-47D (breast); Homo sapiens, T47D): 36 ± 1 µM
- GI50 (WiDr (colon); Homo sapiens, WiDr): 28 ± 4 µM

Compound: c1cc2c(cc1CCC[Se][Se]CCCc1ccc3c(c1)OCO3)OCO2 [Compound 41, Bis[3-(3’, 4’-methylenedioxyphenyl)propyl]diselenide]
- GI50 [3, 15]: 32 ± 8 µM
- GI50 (HBL-100 (breast); [16]): 93 ± 10 µM
- GI50 (HeLa (cervix); [17]): 31 ± 8 µM
- GI50 [4, 18]: 37 ± 15 µM
- GI50 (T-47D (breast); Homo sapiens, T47D): 29 ± 5 µM
- GI50 (WiDr (colon); Homo sapiens, WiDr): 29 ± 8 µM
- GI50 over the tumour cell lines (range, bound or words) [5]: only a moderate antiproliferative agent

Compound: O=C(O)CCC[Se][Se]CCCC(=O)O [Compound 14, 4,4′-Diselenobisbutyric acid]
- GI50 [3, 15]: 46 ± 14 µM
- GI50 (HBL-100 (breast); [16]): > 100 µM
- GI50 (HeLa (cervix); [17]): 44 ± 13 µM
- GI50 [4, 18]: > 100 µM
- GI50 (T-47D (breast); Homo sapiens, T47D): 50 ± 14 µM
- GI50 (WiDr (colon); Homo sapiens, WiDr): 54 ± 6 µM

Compound: O=c1c2ccccc2[se]n1-c1ccccc1 [Ebselen, 2-phenyl-1,2-benzoselenazol-3-one, reference compound]
- GI50 [3, 9]: 25 ± 9 µM
- GI50 (HBL-100 (breast); [10]): 13 ± 3 µM
- GI50 (HeLa (cervix); [11]): 26 ± 8 µM
- GI50 [4, 12]: 28 ± 4 µM
- GI50 (T-47D (breast); [13]): 90 ± 14 µM
- GI50 (WiDr (colon); [14]): > 100 µM

Compound: CC(=O)O[C@H]1C(=O)[C@@]2(C)[C@H]([C@H](OC(=O)c3ccccc3)[C@]3(O)C[C@H](OC(=O)[C@H](O)[C@@H](NC(=O)c4ccccc4)c4ccccc4)C(C)=C1C3(C)C)[C@]1(OC(C)=O)CO[C@@H]1C[C@@H]2O [PTX, paclitaxel, reference compound]
- GI50 (SW1573; [6]): 0.0016 ± 0.0002 µM
- GI50 (SW1573; [7]): 0.0015 ± 0.0005 µM
- GI50 at 48 h [1, 8]: 0.0042 ± 0.0009 µM
- Rf w Verapamil (SW1573/Pgp): 2.6
- Rf w/o Verapamil (SW1573/Pgp): 128

Compound: O=C(O)CCSSCCC(=O)O [Compound 7, 3,3′-Dithiobispropionic acid]
- GI50 [3, 9]: > 100 µM
- GI50 (HBL-100 (breast); [10]): > 100 µM
- GI50 (HeLa (cervix); [11]): > 100 µM
- GI50 [4, 12]: > 100 µM
- GI50 (T-47D (breast); [13]): > 100 µM
- GI50 (WiDr (colon); [14]): > 100 µM

Compound: O=C(O)CC[Se][Se]CCC(=O)O [Compound 13, 3,3′-Diselenobispropanoic acid]
- GI50 [3, 9]: 4.1 ± 0.1 µM
- GI50 (HBL-100 (breast); [10]): 94 ± 8 µM
- GI50 (HeLa (cervix); [11]): 18 ± 1 µM
- GI50 [4, 12]: > 100 µM
- GI50 (T-47D (breast); [13]): 20 ± 8 µM
- GI50 (WiDr (colon); [14]): 5.6 ± 0.6 µM
